Results published in publication PMC10201369, “An asymmetric structure of bacterial TrpRS supports the half-of-the-sites catalytic mechanism and facilitates antimicrobial screening” (Nucleic Acids Research, 2023).

What was measured:
EcTrpRS [1] = target: T1, EcTrpRS (Escherichia coli, UniProt P00954); assay: ITC, one-site model; assay type: binding
T1 construct: gene trpS; full-length (domains span residues 1-334), C-terminal His6 tag, pET20b(+), E. coli BL21(DE3); homodimer, as purified carries one copurified TrpAMP per dimer

EcTrpRS [2] = target: T1, EcTrpRS; assay: ITC, one-site model; cocrystal structure; assay type: binding; conditions: PBS, 15 °C
EcTrpRS [3] = target: T1, EcTrpRS; assay: crystal structure, copurified; assay type: binding; conditions: intermediate product in active site of closed subunit; 1.80 Å
EcTrpRS [4] = target: T1, EcTrpRS; assay: ATP consumption assay (Kinase-Glo), tRNA-dependent; assay type: biochemical
SaTrpRS = target: T2, SaTrpRS (Staphylococcus aureus, UniProt P67593); assay: ITC, one-site model; assay type: binding; conditions: PBS, 15 °C
T2 construct: gene trpS; residues 1-329, expressed and purified similarly to EcTrpRS (His-tagged, E. coli BL21(DE3))
T2 sequence (P67593 whole entry, the tested form may be a part): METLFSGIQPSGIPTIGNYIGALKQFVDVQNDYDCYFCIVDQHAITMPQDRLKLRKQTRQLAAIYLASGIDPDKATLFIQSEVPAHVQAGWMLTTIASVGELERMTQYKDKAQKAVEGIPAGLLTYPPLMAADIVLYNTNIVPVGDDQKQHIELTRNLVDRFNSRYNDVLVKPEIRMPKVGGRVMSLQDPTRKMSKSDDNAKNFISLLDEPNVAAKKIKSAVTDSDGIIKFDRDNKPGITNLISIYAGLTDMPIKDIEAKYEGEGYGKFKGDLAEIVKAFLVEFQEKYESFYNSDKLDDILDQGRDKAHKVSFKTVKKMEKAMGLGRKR

Nc1ncnc2c1ncn2[C@@H]1O[C@H](COP(=O)(O)OP(=O)(O)OP(=O)(O)O)[C@@H](O)[C@H]1O [ATP]
Kd (EcTrpRS [1]): 305 ± 49.9 µM

N[C@@H](Cc1c[nH]c2ccccc12)C(=O)O [L-Trp]
Kd (EcTrpRS [2]; measured for open-closed (one TrpAMP bound) and apo open-open enzyme, active site of open subunit): ITC measurements of L-Trp to ‘open-closed’ asymmetric EcTrpRS and ‘open-open’ apo EcTrpRS showed similar binding

Nc1ncnc2c1ncn2[C@@H]1O[C@H](COP(=O)(O)OC(=O)[C@@H](N)Cc2c[nH]c3ccccc23)[C@@H](O)[C@H]1O [TrpAMP]
crystal structure, copurified (EcTrpRS [3]): A copurified tryptophanyl adenylate (TrpAMP)

NC(=O)c1cccc2cn(-c3ccc([C@@H]4CCCNC4)cc3)nc12 [niraparib]
Kd (EcTrpRS [2]; L-Trp site of the open subunit, blocked by high L-Trp): ~ around 20 μM
IC50 (EcTrpRS [4]): 148 µM
Kd (SaTrpRS): ~ around 20 μM
